In patent US9822106B2, “Inhibitors of leukotriene A4 hydrolase” (Celtaxsys, Inc., priority 2013, dated 2017) one finds inhibition and IC50 data, which are given here for 38 molecules.

Structures are written as SMILES. Like-named read-outs stand apart in the source and are kept apart here. Where only a bound is given, the exact number is not on record here.

Assay [1] has as its target T1, LTA4-h (Homo sapiens, UniProt P09960).
T1 sequence (P09960 1-611): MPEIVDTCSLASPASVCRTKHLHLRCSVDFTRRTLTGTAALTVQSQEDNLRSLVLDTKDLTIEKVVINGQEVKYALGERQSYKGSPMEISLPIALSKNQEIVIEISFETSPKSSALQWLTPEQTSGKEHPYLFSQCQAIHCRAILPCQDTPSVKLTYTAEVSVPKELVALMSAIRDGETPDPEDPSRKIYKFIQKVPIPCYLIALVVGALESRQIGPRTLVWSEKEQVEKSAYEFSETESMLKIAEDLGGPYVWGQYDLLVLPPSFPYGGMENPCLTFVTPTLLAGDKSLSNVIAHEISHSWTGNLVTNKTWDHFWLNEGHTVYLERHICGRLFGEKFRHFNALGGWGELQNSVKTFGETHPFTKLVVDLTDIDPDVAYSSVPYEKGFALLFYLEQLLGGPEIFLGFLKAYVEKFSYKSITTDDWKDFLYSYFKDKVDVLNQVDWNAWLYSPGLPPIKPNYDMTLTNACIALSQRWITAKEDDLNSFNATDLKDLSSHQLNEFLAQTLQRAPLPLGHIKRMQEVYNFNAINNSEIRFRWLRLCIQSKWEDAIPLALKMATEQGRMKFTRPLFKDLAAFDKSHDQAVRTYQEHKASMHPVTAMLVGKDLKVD
In words: peptidase (aminopeptidase) assay. Format: biochemical. The source says: Since LTA4-h hydrolase is grouped with the M1 family of zinc metalloproteases (see, Rudberg, P. C. et al., J. Biol. Chem. 2002, Vol. 277, page 1398-1404), the compounds of the invention can be tested in the standard hydrolase and peptidase assay to determine the compounds' kinetic constants for binding to LTA4-h hydrolase and for inhibiting LTB4 synthesis (see Askonas, L. J., et al., The Journal of Pharmacology and Experimental Therapeutics 2002, 300(2): 577-582; Penning, T. D., J. Med. Chem. 2000, 43(4): 721-735; Kull, F. et al., The Journal of Biological Chemistry 1999, 274 (49): 34683-34690, the contents of which are expressly incorporated by reference herein).
The whole blood and aminopeptidase assays were performed as described in Penning et al., J. Med. Chem. 2000, 43, 721-735, and Rudberg et al., J. Biol. Chem. Vol. 279, No. 26, Issue of June 25, pp. 27376-27382, 2004, the contents of each of which are expressly incorporated by reference herein. The hydrolase assay was performed as described in U.S. Pat. No. 7,737,145, the contents of which are expressly incorporated herein.

Assay [2] deals with T1, LTA4-h. In words: hydrolase assay (hydrolase-homogeneous time resolved fluorescence). Type of assay: biochemical. An excerpt:
The compounds of the invention can be tested for their ability to inhibit LTA4-h by various known assays and by assays described herein. For example, the compounds can be tested for their ability to inhibit LTA4-h activity by assaying the compounds in the hydrolase-homogeneous time resolved fluoroescence assay. This assay, which is a two-step assay, measures the hydrolysis of […] to LTB4 by analyzing the amount of LTB4 produced. The first step involves the enzymatic conversion of […] to LTB4 and the second step involves the quantification of the […] with a homogeneous time resolved fluoroescence assay.
(§1) Tables 4 to 6 below show the IC50 values for peptidase, hydrolase and whole blood assay (WBA) activity for exemplary compounds encompassed by the invention. The whole blood and aminopeptidase assays were performed as described in Penning et al., J. Med. Chem. 2000, 43, 721-735, and Rudberg et al., J. Biol. Chem. Vol. 279, No. 26, Issue of June 25, pp. 27376-27382, 2004, the contents of each of which are expressly incorporated by reference herein. The hydrolase assay was performed as described in U.S. Pat. No. 7,737,145, the contents of which are expressly incorporated herein.

The target of assay [3] is T2, LTA4-h hydrolase (Homo sapiens, UniProt P09960).
T2 construct: from tissue; host or cells: whole blood
T2 sequence (P09960 1-611): T1 sequence (P09960 1-611)
Kind of assay: whole blood assay (WBA). Type of assay: cell-based.
From the text: Compounds of the invention can also be tested for their ability as inhibitors of LTA4-h hydrolase in the whole blood assay using human, mouse, rat or dog whole blood (see Penning, T. D. et al., J. Med. Chem. (2000), 43(4): 721-735 for a description of a human whole blood assay and a mouse whole blood assay, the contents of which are expressly incorporated herein).
as §1

Setting [4] is: prefix 'r' not defined, read-out: IC50 WBA, second value given with prefix 'r'.

For `CCOC(=O)c1ccc(Oc2ncccc2CN(C)Cc2ccc(Oc3ccc(Cl)cc3)cc2)cc1` [Compound 7], the inhibition at 1 µM in assay [1] was 11%.
Take `O=C(O)C1CCCN(c2ccc(CNCc3ccc(OCc4ccc(Cl)cc4)cc3)cn2)C1` (stereo not shown) [Compound 35]: the concentration for half-maximal inhibition (IC50) in assay [2] amounted to 110 nM; in assay [1], 45 nM.
As for `O=C(O)C1CCCN(c2ccc(CNCc3ccc(Oc4ccc(CCO)cc4)cc3)cn2)C1` (stereo not shown) [Compound 40], the IC50 in assay [1] is 21 nM.
Take `O=C(O)C1CCCN(c2ccc(CNCc3ccc(Oc4nc5ccccc5s4)cc3)cn2)C1` (stereo not shown) [Compound 30]: the IC50 in assay [2] is 1 nM; in assay [1], 5 nM; in assay [3] (read-out: IC50 WBA), 120 nM.
As to `CN(Cc1ccc(Oc2ccc(Cl)cc2)cc1)Cc1ccc(N2CCC(C(=O)O)CC2)nc1` [Compound 5], the results for the half-maximal inhibitory concentration (IC50) in assay [2], in assay [1] and in assay [3] (read-out: IC50 WBA) were 43 nM, 45 nM and 570 nM, respectively.
Turning to `CN(Cc1ccc(Oc2ccc(Cl)cc2)cc1)Cc1cccnc1Oc1ccc(C(=O)O)cc1` [Compound 8], the values for the IC50 in assay [2], in assay [1] and in assay [3] (read-out: IC50 WBA) were 50 nM, 78 nM and 290 nM, respectively.
Molecule `O=C(O)CCNc1ccc(CNCc2ccc(Oc3ccc(Cl)cc3)cc2)cn1` [Compound 21] showed an IC50 in assay [1] of 2 nM.
For the molecule `O=C(O)C1CCCN(c2ccc(CNCc3ccc(Oc4ncccn4)cc3)cn2)C1` (stereo not shown) [Compound 34], the IC50 turned out to be 86 nM in assay [2] and 13 nM in assay [1].
In turn, `O=C(O)c1ccc(CNc2ccc(Oc3ccc(Cl)cc3)cc2)cc1` [Compound 42] registered an inhibition at 3 µM in assay [2] of 0%. In addition, the IC50 is 850 nM in assay [1] and greater than 3000 nM in assay [3] (read-out: IC50 WBA).
`CN(Cc1ccc(Oc2ccc(Cl)cc2)cc1)Cc1ccc(N2CCCC(C(=O)O)C2)nc1` (stereo not shown) [Compound 24]: the IC50 is 150 nM in assay [2] and 28 nM in assay [1].
Turning to `Cc1c(C(=O)O)ncn1-c1ccc(CNCc2ccc(Oc3ccc(Cl)cc3)cc2)cn1` [Compound 16], the IC50 in assay [2] amounted to 3 nM; in assay [1], 81 nM; in assay [3] (read-out: IC50 WBA) it was 880 nM.
For `CN(Cc1ccc(Oc2ccc(-c3ncco3)cc2)cc1)Cc1cccnc1Oc1ccc(C(=O)O)cc1` [Compound 12], the IC50 in assay [2] is 33 nM; in assay [1] it was 12 nM; in assay [3] (read-out: IC50 WBA), 360 nM.
`CC(C)=CCOc1ccc(CNCc2ccc(N3CCCC(C(=O)O)C3)nc2)cc1` (stereo not shown) [Compound 32]: the results for the IC50 in assay [2] and in assay [1] were 37 nM and 10 nM, respectively.
Take `O=C(O)c1ccc(Oc2ncccc2CNCc2ccc(Oc3ccc(-c4ncco4)cc3)cc2)cc1` [Compound 10]: the half-maximal inhibitory concentration (IC50) came to 23 nM in assay [2], 39 nM in assay [1] and 1900 nM in assay [3] (read-out: IC50 WBA).
For the molecule `O=C(O)C1CCCN(c2ccc(CNCc3ccc(Oc4ccc(Cl)cc4)cc3)cn2)C1` (stereo not shown) [Compound 22], the IC50 in assay [2] was found to be 4.8 nM; in assay [1], 3.9 nM; in assay [3] (read-out: IC50 WBA) it was 32 nM.
For `CCOC(=O)c1ccc(Oc2ncccc2CN(C)Cc2ccc(Oc3ccc(-c4ncco4)cc3)cc2)cc1` [Compound 11], in assay [1], testing at 1 µM gave an inhibition of 17%.
As to `O=C(O)[C@@H]1CCCN(c2ccc(CNCc3ccc(Oc4cnc5ccccc5n4)cc3)cn2)C1` [Compound 38], the IC50 in assay [1] came to 16 nM.
As for `COc1cc(C(=O)O)ccc1Oc1ncccc1CNCc1ccc(Oc2ccc(-c3ncco3)cc2)cc1` [Compound 14], the IC50 turned out to be 350 nM in assay [2], 61 nM in assay [1] and 1500 nM in assay [3] (read-out: IC50 WBA).
Take `CCOC(=O)c1ccc(Oc2ncccc2CNCc2ccc(Oc3ccc(Cl)cc3)cc2)cc1` [Compound 6]: the inhibition at 1 µM in assay [1] was 18%.
For the molecule `O=C(O)C1CCCN(c2ccc(CNCc3ccc(Oc4ccc5c(c4)OCO5)cc3)cn2)C1` (stereo not shown) [Compound 33], the IC50 in assay [2] and in assay [1] was 8 nM in each case.
`COCCN(Cc1ccc(Oc2ccc(Cl)cc2)cc1)Cc1ccc(N2CCCC(C(=O)O)C2)nc1` (stereo not shown) [Compound 23]: the IC50 amounted to 700 nM in assay [2], 85 nM in assay [1] and 470 nM in assay [3] (read-out: IC50 WBA).
Consider `O=C(O)C1CCCN(c2ccc(CNCCc3ccc(Oc4nc5ccccc5s4)cc3)cc2)C1` (stereo not shown) [Compound 17], for which the IC50 in assay [2] worked out at 5 nM; in assay [1], 54 nM.
Consider `O=C(O)C1CCCN(c2ccc(CNCCc3ccc(Oc4ncccn4)cc3)cc2)C1` (stereo not shown) [Compound 18], for which the IC50 in assay [2] came out at 68 nM; in assay [1] it was 16 nM.
With `CN(Cc1ccc(Oc2ccc(-c3ncco3)cc2)cc1)Cc1ccc(N2CCCC(C(=O)O)C2)nc1` (stereo not shown) [Compound 26], the IC50 in assay [2] is 85 nM; in assay [1], 33 nM; in assay [3] (read-out: IC50 WBA), 180 nM.
As to `O=C(O)c1ccc(Oc2ncccc2CNCc2ccc(Oc3ccc(Cl)cc3)cc2)cc1` [Compound 3], the IC50 in assay [2] worked out at 100 nM; in assay [1] it was 21 nM; in assay [3] (setting [4]), 420 nM; in assay [3] (read-out: IC50 WBA) it was 800 nM.
Regarding `CN(Cc1ccc(Oc2ccc(Cl)cc2)cc1)Cc1ccc(N2CCCC(C(=O)O)C2)nc1` (stereo not shown) [Compound 27], the IC50 in assay [2] turned out to be 320 nM; in assay [1] it was 48 nM; in assay [3] (read-out: IC50 WBA), 510 nM.
For `O=C(O)C1CCCN(c2ccc(CNCc3ccc(Oc4ccc(-c5ncco5)cc4)cc3)cn2)C1` (stereo not shown) [Compound 25], the IC50 was 3 nM in assay [2], 13 nM in assay [1] and 55 nM in assay [3] (read-out: IC50 WBA).
For `O=C(O)C1CCCN(c2ccc(CNCc3ccc(Oc4nc5ccccc5s4)cc3)cn2)C1` (stereo not shown) [Compound 29], the 50% inhibitory concentration (IC50) in assay [1] was 4 nM; in assay [3] (read-out: IC50 WBA) it was 160 nM.
On to `CN(CC(=O)O)c1ccc(CNCc2ccc(Oc3ccc(Cl)cc3)cc2)cn1` [Compound 20], for which the midpoint of inhibition in assay [1], the IC50, lay at 10 nM.
Regarding `O=C(O)C1CCN(c2ccc(CNCc3ccc(Oc4ccc(Cl)cc4)cc3)cn2)CC1` [Compound 2], the IC50 came out at 69 nM in assay [2], 68 nM in assay [1], 360 nM in assay [3] (setting [4]) and 730 nM in assay [3] (read-out: IC50 WBA).
Regarding `CN(Cc1ccc(Oc2ccc(Cl)cc2)cc1)Cc1ccc(Oc2ccc(C(=O)O)cc2)nc1` [Compound 4], the inhibition at 1 µM in assay [2] (at 1 uM) turned out to be 47%. For the same molecule, the IC50 in assay [1] was found to be 300 nM; in assay [3] (read-out: IC50 WBA) it was 2100 nM.
With `O=C(O)C1CCCN(c2ccc(CNCc3ccc(Oc4cnc5ccccc5n4)cc3)cn2)C1` (stereo not shown) [Compound 36], the IC50 in assay [2] worked out at 19 nM; in assay [1] it was 7 nM.
In assay [2], `COCCN(Cc1ccc(Oc2ccc(Cl)cc2)cc1)Cc1ccccc1Oc1cccc(C(=O)O)c1` [Compound 15] displayed an inhibition at 3 µM of 18%. For the same molecule, the IC50 worked out at 470 nM in assay [1] and 1950 nM in assay [3] (read-out: IC50 WBA).
As to `O=C(O)C1CCCN(c2ccc(CNCc3ccc(OC/C=C/c4ccccc4)cc3)cn2)C1` (stereo not shown) [Compound 31], the results for the IC50 in assay [2], in assay [1] and in assay [3] (read-out: IC50 WBA) were 9 nM, 42 nM and 230 nM, respectively.
As for `O=C(O)C1CCCN(c2ccc(CNCc3ccc(Oc4ccc5cc(Cl)ccc5n4)cc3)cn2)C1` (stereo not shown) [Compound 39], the IC50 in assay [1] was 170 nM.
In turn, `O=C(O)[C@H]1CCCN(c2ccc(CNCc3ccc(Oc4cnc5ccccc5n4)cc3)cn2)C1` [Compound 37] registered an IC50 in assay [1] of 12 nM.
`CCOC(=O)c1ccc(Oc2ncccc2CNCc2ccc(Oc3ccc(-c4ncco4)cc3)cc2)cc1` [Compound 9] came in with an inhibition at 1 µM in assay [1] of 45%.
`O=C(O)C1CCCN(c2ccc(CNCc3ccc(Oc4ccc(Cl)cc4)cc3)cc2F)C1` (stereo not shown) [Compound 19]: in assay [1], the midpoint of inhibition, the IC50, lay at 45 nM.

As a reminder, the inhibition is the share of the control response that was lost under treatment. A higher inhibition goes with strong suppression. As usually defined, the IC50 is the point on the concentration scale where inhibition reaches its midpoint.
